What was measured:
Experiment in all cases: Ambit KinomeScan screening
Format in all cases: binding
Conditions in all cases: CAL-130 10 μM
[1] = biological target: T1, ACVR2A (Homo sapiens, UniProt P27037)
T1 construct: purchased Ambit (KinomeScan screening)
Protocol: (§1) CAL-130 (10 μM) was evaluated for its ability to prevent tagged kinases from interacting with immobilized “bait” ligand (Karaman et al., 2008). Results are reported as “% of control binding”, where lower numbers indicate stronger interactions with the tagged kinase. Values of >35% are considered “no hits”. PI3Kδ had the lowest percentage of control binding at 0.2% followed by PI3Kγ at 3.2% (See Table 1 below). These values indicate a high probability of a potent interaction. 353 kinases were assessed in the screen (Table 2).

[2] = biological target: T2, DDR1 (Homo sapiens, UniProt Q08345)
T2 construct: unspecified tag ("tagged kinases"); purchased Ambit (KinomeScan screening service)
Protocol: as §1

[3] = biological target: T3, HUNK (Homo sapiens, UniProt P57058)
T3 construct: Ambit (KinomeScan screening)
Protocol: as §1

[4] = biological target: T4, EPHA1 (Homo sapiens, UniProt P21709)
T4 construct: purchased Ambit (KinomeScan screening service)
Protocol: as §1

[5] = biological target: T5, DRAK1 (Homo sapiens, UniProt Q9UEE5)
T5 construct: unspecified tag ("tagged kinases"); purchased Ambit (KinomeScan screening service)
T5 sequence (Q9UEE5 whole entry): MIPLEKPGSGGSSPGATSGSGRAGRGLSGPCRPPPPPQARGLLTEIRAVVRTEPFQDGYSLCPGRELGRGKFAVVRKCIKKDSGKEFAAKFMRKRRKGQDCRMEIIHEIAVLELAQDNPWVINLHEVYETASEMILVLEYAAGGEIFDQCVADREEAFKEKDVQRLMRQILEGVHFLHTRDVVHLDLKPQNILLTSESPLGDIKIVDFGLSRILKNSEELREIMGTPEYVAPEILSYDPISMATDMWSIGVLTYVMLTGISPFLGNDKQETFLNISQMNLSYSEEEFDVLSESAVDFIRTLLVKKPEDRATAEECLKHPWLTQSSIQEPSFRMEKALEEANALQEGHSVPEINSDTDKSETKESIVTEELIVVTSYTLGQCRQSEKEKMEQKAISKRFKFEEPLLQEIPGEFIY
Protocol: as §1

[6] = biological target: T6, PDGFRA (Homo sapiens, UniProt P16234)
T6 construct: unspecified tag ('tagged kinases'); purchased Ambit (KinomeScan screening)
Protocol: as §1

[7] = biological target: T7, CTK (Homo sapiens, UniProt P42679)
T7 construct: purchased Ambit (KinomeScan screening service)
T7 sequence (P42679 whole entry): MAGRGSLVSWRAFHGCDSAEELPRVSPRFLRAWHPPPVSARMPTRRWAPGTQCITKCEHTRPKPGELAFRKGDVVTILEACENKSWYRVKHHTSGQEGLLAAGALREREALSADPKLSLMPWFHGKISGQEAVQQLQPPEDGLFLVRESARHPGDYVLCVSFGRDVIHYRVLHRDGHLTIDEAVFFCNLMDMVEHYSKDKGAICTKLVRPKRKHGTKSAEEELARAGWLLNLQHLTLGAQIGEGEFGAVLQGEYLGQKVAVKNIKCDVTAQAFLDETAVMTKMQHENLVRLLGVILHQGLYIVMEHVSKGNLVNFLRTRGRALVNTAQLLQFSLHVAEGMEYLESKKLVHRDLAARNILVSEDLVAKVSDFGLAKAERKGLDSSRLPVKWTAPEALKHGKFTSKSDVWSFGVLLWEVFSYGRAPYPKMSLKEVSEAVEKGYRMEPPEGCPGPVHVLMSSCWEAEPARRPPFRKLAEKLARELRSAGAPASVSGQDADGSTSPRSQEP
Protocol: as §1

[8] = biological target: T8, DYRK2 (Homo sapiens, UniProt Q92630)
T8 construct: unspecified tag; purchased Ambit (KinomeScan screening service)
T8 sequence (Q92630 whole entry): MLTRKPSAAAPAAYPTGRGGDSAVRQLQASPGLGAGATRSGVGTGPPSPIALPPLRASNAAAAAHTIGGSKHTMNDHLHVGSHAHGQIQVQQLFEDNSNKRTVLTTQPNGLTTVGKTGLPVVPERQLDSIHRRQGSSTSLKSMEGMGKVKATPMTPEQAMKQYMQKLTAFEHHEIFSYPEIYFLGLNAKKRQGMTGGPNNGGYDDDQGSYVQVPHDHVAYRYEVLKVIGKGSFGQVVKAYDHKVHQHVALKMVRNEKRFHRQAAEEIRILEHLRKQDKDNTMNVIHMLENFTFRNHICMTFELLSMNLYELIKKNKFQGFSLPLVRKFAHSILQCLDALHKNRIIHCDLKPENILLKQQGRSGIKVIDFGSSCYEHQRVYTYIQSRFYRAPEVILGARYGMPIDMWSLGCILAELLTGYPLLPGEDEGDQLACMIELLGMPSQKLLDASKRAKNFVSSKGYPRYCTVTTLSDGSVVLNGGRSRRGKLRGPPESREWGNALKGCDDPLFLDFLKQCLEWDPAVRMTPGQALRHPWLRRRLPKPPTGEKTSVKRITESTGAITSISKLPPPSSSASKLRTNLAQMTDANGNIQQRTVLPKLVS
Protocol: as §1

[9] = biological target: T9, MLK1 (Homo sapiens, UniProt P80192)
T9 construct: unspecified tag ('tagged kinases'); purchased Ambit (KinomeScan screening)
Protocol: as §1

[10] = biological target: T10, AURKA (Homo sapiens, UniProt O14965)
T10 construct: purchased Ambit (KinomeScan screening service)
T10 sequence (O14965 whole entry): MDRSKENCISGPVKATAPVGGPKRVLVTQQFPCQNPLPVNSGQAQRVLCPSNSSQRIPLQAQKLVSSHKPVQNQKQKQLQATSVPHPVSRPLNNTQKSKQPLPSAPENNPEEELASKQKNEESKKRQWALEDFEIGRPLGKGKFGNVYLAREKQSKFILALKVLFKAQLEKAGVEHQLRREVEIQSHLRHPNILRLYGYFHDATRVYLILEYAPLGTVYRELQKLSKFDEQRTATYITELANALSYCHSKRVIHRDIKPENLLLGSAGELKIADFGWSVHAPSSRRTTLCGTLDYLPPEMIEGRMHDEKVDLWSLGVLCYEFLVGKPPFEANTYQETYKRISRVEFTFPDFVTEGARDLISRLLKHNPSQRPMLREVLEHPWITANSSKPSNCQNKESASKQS
Protocol: as §1

[11] = system: FLT3(ITD)
Protocol: as §1

[12] = biological target: T11, TLK2 (Homo sapiens, UniProt Q86UE8)
T11 construct: unspecified tag (tagged kinase); purchased Ambit (KinomeScan screening)
T11 sequence (Q86UE8 whole entry): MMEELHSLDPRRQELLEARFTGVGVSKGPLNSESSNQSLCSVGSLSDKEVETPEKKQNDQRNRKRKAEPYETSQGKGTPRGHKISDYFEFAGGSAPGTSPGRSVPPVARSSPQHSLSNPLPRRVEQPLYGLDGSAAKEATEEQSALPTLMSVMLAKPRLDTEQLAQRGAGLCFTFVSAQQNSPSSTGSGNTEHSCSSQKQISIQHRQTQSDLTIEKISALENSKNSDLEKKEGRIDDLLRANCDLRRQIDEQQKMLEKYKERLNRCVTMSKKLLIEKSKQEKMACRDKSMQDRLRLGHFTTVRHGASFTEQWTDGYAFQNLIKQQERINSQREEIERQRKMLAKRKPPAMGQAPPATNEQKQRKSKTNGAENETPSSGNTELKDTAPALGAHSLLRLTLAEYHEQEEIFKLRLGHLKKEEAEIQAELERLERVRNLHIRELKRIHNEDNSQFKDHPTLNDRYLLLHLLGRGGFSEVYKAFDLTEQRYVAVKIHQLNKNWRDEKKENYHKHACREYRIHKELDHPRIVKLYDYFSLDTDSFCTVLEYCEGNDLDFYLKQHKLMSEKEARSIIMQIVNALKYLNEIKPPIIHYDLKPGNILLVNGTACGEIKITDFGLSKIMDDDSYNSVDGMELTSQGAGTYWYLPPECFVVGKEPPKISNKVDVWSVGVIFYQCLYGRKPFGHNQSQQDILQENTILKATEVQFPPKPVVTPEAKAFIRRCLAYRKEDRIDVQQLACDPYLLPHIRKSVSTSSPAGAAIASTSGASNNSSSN
Protocol: as §1

[13] = biological target: T12, PYK2 (Homo sapiens, UniProt Q14289)
T12 construct: tag (kind not specified); purchased Ambit (KinomeScan screening service)
Protocol: as §1

[14] = biological target: T13, NDR2 (Homo sapiens, UniProt Q9Y2H1)
T13 construct: unspecified tag; purchased Ambit (KinomeScan screening panel)
T13 sequence (Q9Y2H1 whole entry): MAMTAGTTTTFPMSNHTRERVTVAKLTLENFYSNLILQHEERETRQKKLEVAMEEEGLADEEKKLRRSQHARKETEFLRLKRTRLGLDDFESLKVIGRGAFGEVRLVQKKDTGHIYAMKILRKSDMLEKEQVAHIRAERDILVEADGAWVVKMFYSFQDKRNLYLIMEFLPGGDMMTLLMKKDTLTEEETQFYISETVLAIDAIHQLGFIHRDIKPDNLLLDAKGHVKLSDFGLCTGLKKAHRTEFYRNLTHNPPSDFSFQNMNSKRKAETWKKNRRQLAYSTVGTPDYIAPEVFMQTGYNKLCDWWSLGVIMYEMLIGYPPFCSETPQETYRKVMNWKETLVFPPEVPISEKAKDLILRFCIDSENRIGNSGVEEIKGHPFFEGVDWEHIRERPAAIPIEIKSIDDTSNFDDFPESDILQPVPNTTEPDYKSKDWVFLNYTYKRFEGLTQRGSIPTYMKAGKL
Protocol: as §1

[15] = biological target: T14, PLK2 (Homo sapiens, UniProt Q9NYY3)
T14 construct: purchased Ambit (KinomeScan screening service)
T14 sequence (Q9NYY3 whole entry): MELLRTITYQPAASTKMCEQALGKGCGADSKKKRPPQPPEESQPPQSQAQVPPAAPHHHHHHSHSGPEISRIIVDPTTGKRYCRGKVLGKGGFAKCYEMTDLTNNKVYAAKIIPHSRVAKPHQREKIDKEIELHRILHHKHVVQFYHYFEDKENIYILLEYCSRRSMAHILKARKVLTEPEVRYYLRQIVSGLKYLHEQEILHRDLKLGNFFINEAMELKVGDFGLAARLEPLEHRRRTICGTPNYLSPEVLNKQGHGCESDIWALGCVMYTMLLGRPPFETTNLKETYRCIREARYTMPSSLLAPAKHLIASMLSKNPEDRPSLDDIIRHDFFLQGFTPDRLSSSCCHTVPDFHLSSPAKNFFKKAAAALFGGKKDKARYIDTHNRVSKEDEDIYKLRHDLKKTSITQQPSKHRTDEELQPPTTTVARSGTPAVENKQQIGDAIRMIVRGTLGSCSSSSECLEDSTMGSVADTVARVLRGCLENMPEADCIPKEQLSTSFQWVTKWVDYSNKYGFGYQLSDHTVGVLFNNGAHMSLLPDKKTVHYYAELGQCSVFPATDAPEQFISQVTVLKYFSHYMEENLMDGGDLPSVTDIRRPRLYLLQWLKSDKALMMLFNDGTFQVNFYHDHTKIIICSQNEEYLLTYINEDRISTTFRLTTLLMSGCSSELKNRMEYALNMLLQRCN
Protocol: as §1

[16] = biological target: T15, IKK-β (Homo sapiens, UniProt O14920)
T15 construct: Ambit (KinomeScan screening)
Protocol: as §1

[17] = biological target: T16, CLK3 (Homo sapiens, UniProt P49761)
T16 construct: purchased Ambit (KinomeScan screening service)
Protocol: as §1

[18] = biological target: T17, ABL1(Y253F) (Homo sapiens, UniProt P00519, Y253F)
T17 construct: unspecified tag ("tagged kinases"); purchased Ambit (KinomeScan screening)
Protocol: as §1

[19] = biological target: T18, DAPK2 (Homo sapiens, UniProt Q9UIK4)
T18 construct: purchased Ambit (KinomeScan screening service)
Protocol: as §1

[20] = biological target: T19, TGFBR1 (Homo sapiens, UniProt P36897)
T19 construct: unspecified tag (tagged kinase); purchased Ambit (KinomeScan screening)
Protocol: as §1

[21] = biological target: T20, MAP4K3 (Homo sapiens, UniProt Q8IVH8)
T20 construct: Ambit (KinomeScan screening)
Protocol: as §1

[22] = biological target: T21, SRPK2 (Homo sapiens, UniProt P78362)
T21 construct: purchased Ambit (KinomeScan screening service)
Protocol: as §1

[23] = biological target: T22, CDK7 (Homo sapiens, UniProt P50613)
T22 construct: purchased Ambit (KinomeScan screening)
Protocol: as §1

[24] = biological target: T23, AMPK-α2 (Homo sapiens, UniProt P54646)
T23 construct: purchased Ambit (KinomeScan screening)
Protocol: as §1

[25] = biological target: T24, ABL1(F317I) (Homo sapiens, UniProt P00519, F317I)
T24 construct: unspecified tag ("tagged kinases"); purchased Ambit (KinomeScan screening)
Protocol: as §1

[26] = biological target: T25, ZAP70 (Homo sapiens, UniProt P43403)
T25 construct: purchased Ambit (KinomeScan screening service)
T25 sequence (P43403 whole entry): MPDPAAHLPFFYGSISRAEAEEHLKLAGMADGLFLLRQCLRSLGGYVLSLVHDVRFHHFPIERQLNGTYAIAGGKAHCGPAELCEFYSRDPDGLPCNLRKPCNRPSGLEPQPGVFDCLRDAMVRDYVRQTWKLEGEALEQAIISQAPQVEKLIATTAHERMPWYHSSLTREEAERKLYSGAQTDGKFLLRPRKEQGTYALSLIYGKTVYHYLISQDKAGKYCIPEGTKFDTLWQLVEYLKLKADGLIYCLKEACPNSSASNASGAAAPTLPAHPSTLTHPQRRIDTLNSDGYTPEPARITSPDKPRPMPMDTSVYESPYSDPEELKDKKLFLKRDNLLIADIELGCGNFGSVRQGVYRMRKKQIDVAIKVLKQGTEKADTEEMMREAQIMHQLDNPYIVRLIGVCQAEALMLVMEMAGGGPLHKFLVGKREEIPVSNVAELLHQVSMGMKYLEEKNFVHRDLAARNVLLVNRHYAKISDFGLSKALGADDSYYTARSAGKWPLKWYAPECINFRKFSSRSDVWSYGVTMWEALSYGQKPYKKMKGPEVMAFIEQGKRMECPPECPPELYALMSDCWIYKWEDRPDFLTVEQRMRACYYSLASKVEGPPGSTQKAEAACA
Protocol: as §1

[27] = biological target: T26, CDK2 (Homo sapiens, UniProt P24941)
T26 construct: purchased Ambit (KinomeScan screening)
Protocol: as §1

[28] = biological target: T27, MST2 (Homo sapiens, UniProt Q13188)
T27 construct: unspecified tag ('tagged kinases'); purchased Ambit (KinomeScan screening)
Protocol: as §1

[29] = biological target: T28, ULK3 (Homo sapiens, UniProt Q6PHR2)
T28 construct: tag, kind not specified; purchased Ambit (KinomeScan screening service)
Protocol: as §1

[30] = biological target: T29, CHEK2 (Homo sapiens, UniProt O96017)
T29 construct: purchased Ambit (KinomeScan screening service)
Protocol: as §1

[31] = biological target: T30, PKAC-β (Homo sapiens, UniProt P22694)
T30 construct: unspecified tag; purchased Ambit (KinomeScan screening panel)
Protocol: as §1

[32] = biological target: T31, NIM1 (Homo sapiens, UniProt Q8IY84)
T31 construct: purchased Ambit (KinomeScan screening service)
Protocol: as §1

[33] = biological target: T32, AMPK-α1 (Homo sapiens, UniProt Q13131)
T32 construct: purchased Ambit (KinomeScan screening)
Protocol: as §1

[34] = biological target: T33, LYN (Homo sapiens, UniProt P07948)
T33 construct: unspecified tag ('tagged kinases'); purchased Ambit (KinomeScan screening service)
T33 sequence (P07948 whole entry): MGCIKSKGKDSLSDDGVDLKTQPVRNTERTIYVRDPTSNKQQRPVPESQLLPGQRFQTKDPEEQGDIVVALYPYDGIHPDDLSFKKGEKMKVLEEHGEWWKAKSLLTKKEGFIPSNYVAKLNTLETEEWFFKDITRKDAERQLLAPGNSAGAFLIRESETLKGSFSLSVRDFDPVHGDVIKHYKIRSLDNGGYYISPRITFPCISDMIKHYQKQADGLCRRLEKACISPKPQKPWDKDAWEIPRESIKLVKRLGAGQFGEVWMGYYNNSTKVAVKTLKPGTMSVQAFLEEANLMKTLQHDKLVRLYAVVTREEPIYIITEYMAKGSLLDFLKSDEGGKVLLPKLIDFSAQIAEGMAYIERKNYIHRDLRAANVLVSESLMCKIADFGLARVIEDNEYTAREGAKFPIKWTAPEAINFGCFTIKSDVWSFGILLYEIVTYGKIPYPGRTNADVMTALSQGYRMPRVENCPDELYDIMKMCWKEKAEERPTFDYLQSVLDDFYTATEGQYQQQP
Protocol: as §1

[35] = biological target: T34, ITK (Homo sapiens, UniProt Q08881)
T34 construct: purchased Ambit (KinomeScan screening)
Protocol: as §1

[36] = biological target: T35, STK35 (Homo sapiens, UniProt Q8TDR2)
T35 construct: tag (kind not specified); purchased Ambit (KinomeScan screening service)
Protocol: as §1

[37] = biological target: T36, YANK2 (Homo sapiens, UniProt Q9NY57)
T36 construct: purchased Ambit (KinomeScan screening service)
Protocol: as §1

Measured: Percent of Control Binding

Cc1ccccc1-n1c(C(C)Nc2nc(N)nc3nc[nH]c23)nc2cccc(C)c2c1=O (stereo not shown) [CAL-130]
100%: all assays above
